The results in this text go back to US20240043615A1, “AMINO ACID POLYMER-PLATINUM ANTICANCER DRUG CONJUGATES” (priority 2020, published 2024).

For series [1], the system named is multiple drug resistant MDA-MB-231 cells (MDA-MB-231/MDR). Description: Cytotoxicity in multiple drug resistant MDA-MB-231 cells. The class given is cell-based, human. To be noted: different concentrations of Pt, 30 min. How it is done: (§1) A2780 cisplatin-resistant cells (A2780-Cis) and multiple drug resistant MDA-MB-231 cells (MDA-MB-231/MDR) were employed as models of drug resistant cells. 5×10^3 A2780-Cis or MDA-MB-231/MDR cells/well were seeded in a 96-well plate and cultured overnight. […] The results of this study are found in FIGS. 8A and 8B.

In series [2] the test system is A2780 cisplatin-resistant cells (A2780-Cis). Description: Cytotoxicity in cisplatin-resistant A2780 cells. The class given is cell-based, human. To be noted: different concentrations of Pt, 30 min. The protocol: as §1
Series [3] has as its system CT26 cells. Description: Annexin-V/propidium iodide flow cytometry (apoptosis/necrosis). To be noted: 15 μg (Pt)/mL, different times. The class given is cell-based, mouse. Background: Flow cytometry measures light scatter and fluorescence of single cells or particles in a stream.
Method: CT26 cells were seeded in a 6-well plate and cultured overnight. […] Apoptosis: Annexin V^+ PI^−, Necrosis: PI^+.
Series [4] in a line: Spleen toxicity evaluation in mice. To be noted: mice after treatment.
Series [5] concerns MDA-MB-231 human breast cancer cells. Description: Cytotoxicity in MDA-MB-231 cells. The class given is cell-based. Conditions: varying platinum concentration, 30 min. The protocol:
(§2) CT26, A2780 or MDA-MB-231 cells were seeded in a 96-well plate and cultured overnight.

Series [6] is described as follows: Plasma pharmacokinetics in tumor-free mice (Pt by ICP-OES). To be noted: 4 mg (Pt)/kg Pt-equivalent dosage.
Method: The dosage was calculated based on Pt. Plasma samples were collected at different time points. Pt content was measured by ICP-OES.
The subject of series [7] is CT26 tumor. Description: Anti-tumor efficacy, CT26 tumor-bearing mice. Format: in vivo. To be noted: i.v.
Series [8] has as its system A2780 cisplatin-resistant tumor. To be noted: i.v.; control 5% glucose.
Series [9] in a line: Body weight change in mice. To be noted: single 8 mg (Pt)/kg injection.
Series [10] relates to CT26 cells. Description: LysoTracker flow cytometry (lysosomal rupture). Format: cell-based, mouse. Conditions: treatment 1 h; LysoTracker deep red 100 nM 40 min.
Method: CT26 cells were seeded in a 6-well plate and cultured overnight. […] Cells were then stained with LysoTracker deep red (100 nM) for 40 min. Cells were analyzed by flow cytometry.
The subject of a further series is A2780 tumor. Description: Anti-tumor efficacy, A2780 tumor-bearing mice. Format: in vivo. Conditions: i.v.
In series [11] the test system is CT26 cells. To be noted: for cell viability of CT26 cells with respect to incubation time: 25 μg Pt/mL, different time points, CCK8; for cell viability of CT26 cells: varying platinum concentration, 30 min. How it is done:
5×10^3 CT26 cells/well were seeded in a 96-well plate and cultured overnight. […] Cell viability was detected by CCK8 assay. The concentration of each of the platinum derivatives was calculated based on platinum concentration.
as §2
The concentration of each of the platinum derivatives was calculated based on platinum concentration.

In series [12] the test system is A2780 human ovarian cancer cells. Description: Cytotoxicity in A2780 cells. To be noted: varying platinum concentration, 30 min. Format: cell-based. How it is done: as §2
Series [13] concerns CT26 tumor. Conditions: CT26-tumor bearing mice, i.v., same dosage of oxaliplatin and P(G-A)-Asp-Pt.
In series [14] the test system is CT26 cells. Conditions: short-time treatment.
Series [15] relates to CT26 cells. Conditions: dynasore, chlorpromazine, genistein, cytochalasin D 40 min, then 25 μg (Pt)/mL for 30 min.
Where [16] appears, read: same Pt dosage of oxaliplatin and P(G-A)-Asp-Pt, control 5% glucose.

Entries after “also recorded” stand apart in the source; their conditions may differ.

With `N.N.[Cl][Pt][Cl]` [cisplatin], the “cell viability of MDA-MB-231/MDR cells” value in series [1] was “little effect”. In addition, in [2], the “cell viability of A2780-Cis cells” value is given as “little effect”.

On to `O=C1[O][Pt]2([NH][C@@H]3CCCC[C@H]3[NH]2)[O]C1=O` [oxaliplatin, reference compound], for which the “cell viability of MDA-MB-231/MDR cells” value in series [1] is reported as “little effect”. Further, the “apoptosis (Annexin V+ PI−) of CT26 cells” value with CT26 cells [3] is reported as “induced cell apoptosis gradually from 0.5 h to 18 h”. Further, the “spleen appearance and weight” value in series [4] is “dramatically shrunken with decreased weight”. Besides, in [5], the “cell viability of MDA-MB-231 cells” value is reported as “little effect”. In addition, the “Pt concentration in plasma versus time (circulation time)” value in series [6] is recorded as “quickly cleared from plasma”. In the series on CT26 tumor [7] (setting [16]), the CT26 tumor growth entry was “partially slowed CT26 and A2780 tumor growth”. Moreover, the A2780-Cis tumor growth result in [8] is given as “partial anti-tumor efficacy on A2780-Cis tumors”. For the same molecule, the body weight decrease entry in series [9] is listed as “more than 15%”. The “LysoTracker signal (MFI) in CT26 cells” value in the series on CT26 cells [10] is reported as “little effect”. Moreover, the A2780 tumor growth result with A2780 tumor (setting [16]) was “partially slowed CT26 and A2780 tumor growth”. In the series with CT26 cells [11], the “cell viability of CT26 cells with respect to incubation time” value is “little effect within that time interval” and the “cell viability of CT26 cells” value was “little effect”. In series [2], the “cell viability of A2780-Cis cells” value was “little effect”. Besides, the “cell viability of A2780 cells” value in series [12] was “little effect”. Further, the “Pt concentration in tumors versus time” value in the series on CT26 tumor [13] is “rapidly dropped over time”.

Consider “Poly L-Glutamic and poly L-Aspartic acid (Glu:Asp = 7:3)-L-Aspartic-Platinum [P(G-A)-Asp-Pt]”, for which, in series [1], the “cell viability of MDA-MB-231/MDR cells” value was “able to kill these drug resistant cells in 30 min”. Besides, the “morphological changes in CT26 cells” value with CT26 cells [14] is “Obvious cancer cell swelling and disrupted plasma membrane”. Further, the “necrosis (PI+) of CT26 cells” value in the series with CT26 cells [3] was “triggered cancer cell necrosis quickly in 30 min”. Also, the “cell viability of MDA-MB-231 cells” value in series [5] is on record as “able to kill these cancer cells”. Besides, in the series with CT26 tumor [7] (high dose), the CT26 tumor growth entry is “completely inhibited the growth” and the “mice with complete response, CT26 tumors” value was “over 40%”. In addition, in the series with CT26 tumor [7] (setting [16]), the CT26 tumor growth entry is listed as “significantly inhibited tumor growth compared to the same oxaliplatin dosage”. For the same molecule, in series [8], the A2780-Cis tumor growth result is “significantly prohibited A2780-Cis tumor growth”. The “LysoTracker signal (MFI) in CT26 cells” value in the series on CT26 cells [10] is listed as “reduced LysoTracker signal”. Moreover, the “viability of CT26 cells pre-treated with endocytosis/micropinocytosis inhibitors” value in the series on CT26 cells [15] is given as “partially restore cell viability”. In the series with A2780 tumor (high dose), the A2780 tumor growth entry was “completely inhibited the growth” and the “mice with complete response, A2780 tumors” value is reported as “over 40%”. The A2780 tumor growth entry in the series with A2780 tumor (setting [16]) is reported as “significantly inhibited tumor growth compared to the same oxaliplatin dosage”. In the series on CT26 cells [11], the “cell viability of CT26 cells with respect to incubation time” value is recorded as “induce rapid cell death in as short as 30 min”; the “cell viability of CT26 cells” value was “able to kill these cancer cells; also recorded: best cytotoxicity to CT26 cells compared to the other platinum derivatives tested; also recorded: better efficacy that P(G-A)-Glu-Pt and P(G-A)-D-Asp-Pt”. Besides, the “IC50 in CT26 cells in different incubation times” value in the series with CT26 cells [11] (24 and 48 h, compared with oxaliplatin) is “lower IC50”. Besides, the “cell viability of A2780-Cis cells” value in series [2] is “able to kill these drug resistant cells in 30 min”. Besides, the “cell viability of A2780 cells” value in series [12] is recorded as “able to kill these cancer cells”.

Regarding “Poly L-Glutamic and poly L-Aspartic acid (Glu:Asp = 7:3)-Platinum [P(G-A)-Pt]”, in the series with CT26 cells [11], the “cell viability of CT26 cells” value is listed as “best cytotoxicity to CT26 cells compared to the other platinum derivatives tested”.
